Laboratory results taken from patent publication US10544130B2, “Metallo-beta-lactamase inhibitors” (priority 2015, dated 2020).
≈ marks a conversion by molar mass, not a printed value. Read-outs that look alike come from different tables or passages of the source.

Key:
[1] = system: Pseudomonas aeruginosa MB 5919; assay: Minimum inhibitory concentrations of sentinel antibiotics (strain quality control); type: cell-based; details: OprD+, efflux+, parental strain
[2] = system: Pseudomonas aeruginosa MB 5890; assay: as above; type: cell-based; details: OprD+, efflux−, parental strain
[3] = system: MB 5890 Trans pFlp-Vim2 plasmid; type: cell-based, Pseudomonas aeruginosa; details: OprD+, efflux−
IMP-1 = IMP-1 (Serratia marcescens, UniProt P52699); type: biochemical; details: CCF2-FA substrate, 2 hours at 25° C.
Sequence of IMP-1 (P52699 whole entry, looked up, species assumed): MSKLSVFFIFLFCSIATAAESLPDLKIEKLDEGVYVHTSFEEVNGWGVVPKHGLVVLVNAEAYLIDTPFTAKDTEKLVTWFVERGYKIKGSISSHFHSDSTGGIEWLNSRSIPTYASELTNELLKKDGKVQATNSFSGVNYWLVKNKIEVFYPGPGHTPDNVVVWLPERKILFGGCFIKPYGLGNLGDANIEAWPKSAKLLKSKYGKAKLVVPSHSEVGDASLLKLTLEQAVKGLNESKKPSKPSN
Description: (§1) Enzyme Activity: Determination of IC50
(§2) The Class B enzyme activities were measured in the presence of the test inhibitor in a fluorescence assay against a commercially available substrate consisting of a cephalosporin core linking 7-hydroxycoumarin to fluorescein (CCF2-FA). […] In a 384-well microplate, the test inhibitor was incubated with the metallo-β-lactamase enzyme and the substrate for 2 hours at 25° C. […] The IC50 value was determined from semi-logarithmic plots of enzyme inhibition versus inhibitor concentration, with a curve generated using a 4-parameter fit.

NDM-1 = NDM-1 (Klebsiella pneumoniae, UniProt C7C422); type: biochemical; details: CCF2-FA substrate, 2 hours at 25° C.
Sequence of NDM-1 (C7C422 whole entry, looked up, species assumed): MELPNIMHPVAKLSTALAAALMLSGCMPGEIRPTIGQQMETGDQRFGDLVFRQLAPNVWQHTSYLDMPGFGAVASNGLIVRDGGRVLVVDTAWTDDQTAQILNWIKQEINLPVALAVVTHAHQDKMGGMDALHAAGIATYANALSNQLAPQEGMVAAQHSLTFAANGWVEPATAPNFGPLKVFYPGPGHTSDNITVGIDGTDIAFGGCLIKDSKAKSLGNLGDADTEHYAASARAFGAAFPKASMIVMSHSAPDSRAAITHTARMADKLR
Description: as §1, §2

VIM-1 = VIM-1 (Pseudomonas aeruginosa (strain ATCC 15692 / DSM 22644 / CIP 104116 / JCM 14847 / LMG 12228 / 1C / PRS 101 / PAO1), UniProt A0A0F7KYQ8); type: biochemical; details: CCF2-FA substrate, 2 hours at 25° C.
Description: as §1, §2

[4] = system: Escherichia coli expressing NDM-1 (CLB30005, CLB30016); type: cell-based; details: with imipenem 1 μg/ml; 95% inhibition of bacterial growth
Outline: (§3)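 Growth read by absorbance after 22–24 h at 35 °C in CAMHB, with test compound alone or combined with 1 μg/ml imipenem. Inocula came from overnight 35 °C blood-agar colonies, set to a defined OD600 and diluted 1:100. Value is the inhibitor concentration giving synergy.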

[5] = system: Pseudomonas aeruginosa PAO1 MB9798 (efflux+, IMP-1); details: for Efflux ratio: ratio MITC95 PA 9798/MITC95 PA 9799; for P. aeruginosa expressing IMP-1, efflux + (MB9798) MITC95: restores susceptibility to imipenem at 2 μg/mL in the presence of a class A
Outline: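 Isogenic PAO1 pair (efflux+ MB9798, efflux− MB9799, both IMP-1) tested by microbroth MIC with fixed imipenem and/or ceftazidime, usually at CLSI breakpoint, plus fixed class A/C inhibitor against AmpC. MBL inhibitor titrated; concentration restoring susceptibility recorded and fold difference between strains taken as efflux extent.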

[6] = system: Pseudomonas aeruginosa PAO1 MB9799 (efflux-, IMP-1); type: cell-based; details: C, D serine β-lactamase inhibitor closely related to relebactam; for P. aeruginosa expressing IMP-1, efflux − (MB9799) MITC95: restores susceptibility to imipenem at 2 μg/mL in the presence of a class A, efflux − strain MB9799
Text: The strain background was Pseudomonas aeruginosa PAO1.
The strain set was then used as a pair to determine the effect of metallo-β-lactamase inhibitors of Formula I on the MIC of imipenem and/or ceftazidime. A fixed concentration of antibiotic was included in standard microbroth MIC tests, usually at the CLSI (Clinical and Laboratory Standards Institute) breakpoint concentration. A fixed amount of a class A/C beta-lactamase inhibitor was also included to inhibit the resident Pseudomonas AmpC enzyme. A serial titration of the metallo-β-lactamase inhibitor was included and the concentration of metallo-β-lactamase inhibitor which restores susceptibility of the strain to the included antibiotic was recorded. That concentration of metallo-β-lactamase inhibitor was then compared between the two strains to determine the fold difference between the efflux + (MB9798) and efflux − (MB9799) strains. This was taken as an indication of the extent to which the MBLi is subject to efflux.

[7] = system: Klebsiella pneumoniae expressing VIM-1 (IHMA599644); type: cell-based; details: with imipenem 1 μg/ml; 95% inhibition of bacterial growth
Outline: as §3

[8] = system: Serratia marcescens expressing IMP-1 (CL5741); type: cell-based; details: with imipenem 1 μg/ml; 95% inhibition of bacterial growth
Outline: as §3

[9] = system: MB 5919 Trans IMP1 plasmid (MB 9798); type: cell-based, Pseudomonas aeruginosa; details: OprD+, efflux+
[10] = system: MB 5890 Trans IMP1 plasmid (MB 9799); type: cell-based, Pseudomonas aeruginosa; details: OprD+, efflux−
[11] = C, D serine β-lactamase inhibitor closely related to relebactam, efflux + strain MB9798

Compound | Efflux ratio ([5]; imipenem at 2 μg/mL) | Klebsiella pneumoniae (VIM-1) MITC95 [7] | Escherichia coli (NDM-1) MITC95 [4] | Serratia marcescens (IMP-1) MITC95 [8] | further results
CC(C)(O/N=C(\C(=O)N[C@@H]1C(=O)N2C(C(=O)[O-])=C(C[n+]3ccccc3)CS[C@H]12)c1csc(N)n1)C(=O)O [CAZ, ceftazidime] | – | – | – | – | MIC [1]: 1 mg/L (≈ 1.83 µM); MIC [2]: 0.5 mg/L (≈ 0.915 µM); MIC [3]: 64 mg/L (≈ 117 µM)
Nc1nc2c(-c3ccc(S(=O)(=O)N4CCN(CCO)CC4)c(S(N)(=O)=O)c3-c3nnn[nH]3)cccc2s1.O=C(O)C(F)(F)F [Example 92, 4-((4-(2-aminobenzo[d]thiazol-4-yl)-2-sulfamoyl-3-(1H-tetrazol-5-yl)phenyl)sulfonyl)-1-(2-hydroxyethyl) piperazin-1-ium 2,2,2-trifluoroacetate] | 4.00 | – | – | – | IC50 (IMP-1; fluorescence assay): 1.17 nM; IC50 (NDM-1; fluorescence assay): 0.609 nM; IC50 (VIM-1; fluorescence assay): 1.41 nM; Escherichia coli expressing NDM-1 (CLB30016) MITC95 [4]: 12.5 µM; P. aeruginosa expressing IMP-1, efflux + (MB9798) MITC95 [5, 11]: 25 µM; P. aeruginosa expressing IMP-1, efflux − (MB9799) MITC95 [6]: 6.25 µM
C[N+]1(CCN)CC[C@@H](NS(=O)(=O)c2ccc(-c3cccc4[nH]c(N)nc34)c(-c3nn[nH]n3)c2S(N)(=O)=O)C1 (stereo partly drawn) [Example 248, (3R)-3-{[4-(2-amino-1H-1,3-benzodiazol-4-yl)-2-sulfamoyl-3-(2H-1,2,3,4-tetrazol-5-yl)benzene]sulfonamido}-1-(2-aminoethyl)-1-methylpyrrolidin-1-ium; methaneperoxoate] | – | 0.7813 µM | – | – | P. aeruginosa expressing IMP-1, efflux + (MB9798) MITC95 [5, 11]: 0.7813 µM; P. aeruginosa expressing IMP-1, efflux − (MB9799) MITC95 [6]: 0.7813 µM
NCCNS(=O)(=O)c1ccc(-c2cccc(NC[C@H](N)CO)c2)c(-c2nn[nH]n2)c1S(N)(=O)=O [Example 350, (S)-3′-((2-amino-3-hydroxypropyl)amino)-N4-(2-aminoethyl)-2-(2H-tetrazol-5-yl)-[1,1′-biphenyl]-3,4-disulfonamide] | 1.00 | 0.7813 µM | 0.7813 µM | 0.7813 µM | –
NCCNS(=O)(=O)c1ccc(-c2cccc(NC[C@H](O)CN)c2)c(-c2nn[nH]n2)c1S(N)(=O)=O [Example 351, (R)-3′-((3-amino-2-hydroxypropyl)amino)-N4-(2-aminoethyl)-2-(2H-tetrazol-5-yl)-[1,1′-biphenyl]-3,4-disulfonamide] | 2.00 | 1.563 µM | 0.7813 µM | 1.563 µM | –
NCCNS(=O)(=O)c1ccc(-c2cccc(NC[C@@H](O)CN)c2)c(-c2nn[nH]n2)c1S(N)(=O)=O [Example 352, (S)-3′-((3-amino-2-hydroxypropyl)amino)-N4-(2-aminoethyl)-2-(2H-tetrazol-5-yl)-[1,1′-biphenyl]-3,4-disulfonamide] | 2.00 | 1.563 µM | 0.7813 µM | 1.563 µM | –
NCCNS(=O)(=O)c1ccc(-c2cccc(SC[C@H](O)CN)c2)c(-c2nn[nH]n2)c1S(N)(=O)=O [Example 356, (R)-3′-((3-amino-2-hydroxypropyl)thio)-N4-(2-aminoethyl)-2-(2H-tetrazol-5-yl)-[1,1′-biphenyl]-3,4-disulfonamide] | 2.00 | 0.7813 µM | 0.7813 µM | 0.7813 µM | –
NCCNS(=O)(=O)c1ccc(-c2cccc(SC[C@@H](O)CN)c2)c(-c2nn[nH]n2)c1S(N)(=O)=O [Example 357, (S)-5′-(3-amino-2-hydroxypropylthio)-N4-(2-aminoethyl)-2-(2H-tetrazol-5-yl)biphenyl-3,4-disulfonamide] | 2.00 | 0.7813 µM | 0.7813 µM | 0.7813 µM | –
NC[C@H](CO)NS(=O)(=O)c1ccc(-c2ccnc(N)c2)c(-c2nn[nH]n2)c1S(N)(=O)=O [Example 362, (R)—N1-(1-amino-3-hydroxypropan-2-yl)-4-(2-aminopyridin-4-yl)-3-(2H-tetrazol-5-yl)benzene-1,2-disulfonamide] | 2.00 | 3.125 µM | 1.563 µM | 1.563 µM | –
NCc1nc2c(-c3ccc(S(=O)(=O)N[C@@H](CN)CO)c(S(N)(=O)=O)c3-c3nn[nH]n3)cccc2[nH]1 [Example 379, (S)—N^1-(1-amino-3-hydroxypropan-2-yl)-4-(2-(aminomethyl)-1H-benzo[d]imidazol-4-yl)-3-(2H-tetrazol-5-yl)benzene-1,2-disulfonamide] | 2.00 | 1.563 µM | 1.563 µM | 1.563 µM | –
NC[C@@H](CO)NS(=O)(=O)c1ccc(-c2cccc(N)n2)c(-c2nn[nH]n2)c1S(N)(=O)=O [Example 382, (S)—N1-(1-amino-3-hydroxypropan-2-yl)-4-(6-aminopyridin-2-yl)-3-(2H-tetrazol-5-yl)benzene-1,2-disulfonamide] | 1.00 | 3.125 µM | 1.563 µM | 1.563 µM | –
NC[C@H](O)CNS(=O)(=O)c1ccc(-c2ccnc(N)c2)c(-c2nn[nH]n2)c1S(N)(=O)=O [Example 417, (S)-N^1-(3-amino-2-hydroxypropyl)-4-(2-aminopyridin-4-yl)-3-(2H-tetrazol-5-yl)benzene-1,2-disulfonamide] | – | – | – | – | IC50 (IMP-1): 1.28 nM; IC50 (NDM-1): 0.385 nM; Concentration of metallo-β-lactamase inhibitor which restores susceptibility of efflux + (MB9798) strain to imipenem ([5]; imipenem at 2 μg/mL, in the presence of a class A, C, D serine β-lactamase inhibitor closely related to relebactam, efflux + strain MB9798): 1.563; Concentration of metallo-β-lactamase inhibitor which restores susceptibility of efflux − (MB9799) strain to imipenem ([6]; imipenem at 2 μg/mL, in the presence of a class A): 0.7813
CCN1CCN(C(=O)N[C@@H](C(=O)N[C@@H]2C(=O)N3[C@@H]2SC(C)(C)[C@@H]3C(=O)O)c2ccccc2)C(=O)C1=O [Pipercillin, piperacillin] | – | – | – | – | MIC [1]: 2 mg/L (≈ 3.86 µM); MIC [2]: 1 mg/L (≈ 1.93 µM); MIC [9]: 4 mg/L (≈ 7.73 µM); MIC [10]: 4 mg/L (≈ 7.73 µM)
(R)-4-(1-(2-aminoethyl)-1H-benzo[d][1,2,3]triazol-4-yl)-N1-(pyrrolidin-3-yl)-3-(2H-tetrazol-5-yl)benzene-1,2-disulfonamide yl)benzene-1,2-disulfonamide [Example 289] | 2.00 | 1.563 µM | 0.7813 µM | 1.563 µM | IC50 (IMP-1): 1.22 nM; IC50 (NDM-1): 0.249 nM; IC50 (VIM-1): 0.104 nM; P. aeruginosa expressing IMP-1, efflux + (MB9798) MITC95 [5, 11]: 1.563 µM; P. aeruginosa expressing IMP-1, efflux − (MB9799) MITC95 [6]: 0.7813 µM
